Data taken from ChEMBL document CHEMBL1201862, “PubChem BioAssay data set” (2004).
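Each compound was tested at five concentrations against cells in 96-well plates for 48 hours. The concentration for 50% growth inhibition is given as GI50.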 The source made the active and inactive calls. No stated cut-off is given here; in the data, active = GI50 up to about 1.1 µM and inactive = higher.

Experiments:
Test in all cases: DTP human tumour cell line panel, 48 h
[1] = tested on: SNB-19
[2] = tested on: IGROV-1
[3] = tested on: Malme-3M
[4] = tested on: SF-295
[5] = tested on: A549
[6] = tested on: A498
[7] = tested on: NCI-H522
[8] = tested on: U-251
[9] = tested on: NCI-H460
[10] = tested on: UACC-257
[11] = tested on: HCC 2998
[12] = tested on: NCI/ADR-RES
[13] = tested on: OVCAR-8
[14] = tested on: OVCAR-5
[15] = tested on: MDA-MB-231
[16] = tested on: RPMI-8226
[17] = tested on: MDA-N
[18] = tested on: UACC-62
[19] = tested on: LOX IMVI
[20] = tested on: SR

Row | SMILES | GI50 [1] | GI50 [2] | GI50 [3] | GI50 [4] | GI50 [5] | GI50 [6] | GI50 [7] | GI50 [8] | GI50 [9] | GI50 [10] | GI50 [11] | GI50 [12] | GI50 [13] | GI50 [14] | GI50 [15] | GI50 [16] | GI50 [17] | GI50 [18] | GI50 [19] | GI50 [20]
1 | CNNC1=NS(=O)(=O)c2cc(C(=O)OC)c(Cl)cc2S1 | > 10 µM (inactive) | > 10 µM (inactive) | > 10 µM (inactive) | > 10 µM (inactive) | > 10 µM (inactive) | > 10 µM (inactive) | > 10 µM (inactive) | > 10 µM (inactive) | > 10 µM (inactive) | > 10 µM (inactive) | > 10 µM (inactive) | > 10 µM (inactive) | > 10 µM (inactive) | > 10 µM (inactive) | > 10 µM (inactive) | > 10 µM (inactive) | > 10 µM (inactive) | > 10 µM (inactive) | > 10 µM (inactive) | 
2 | O=C1c2ccccc2C2C1C(c1ccccc1)C1(Cc3ccccc3C1=O)C2c1ccccc1 (centres undefined) | > 100 µM (inactive) | 11.7 µM (inactive) | > 100 µM (inactive) | > 29.6 µM (inactive) | > 100 µM (inactive) |  | 20.5 µM (inactive) | > 100 µM (inactive) | > 67 µM (inactive) | > 100 µM (inactive) | > 46.8 µM (inactive) | > 100 µM (inactive) | > 100 µM (inactive) | > 100 µM (inactive) | 4.72 µM (inactive) |  | 4.28 µM (inactive) | 10.1 µM (inactive) | 21.6 µM (inactive) | 7.57 µM (inactive)
3 | Cc1c2ccccc2c(CSC(=N)N)c2ccccc12 | 0.228 µM (active) | 0.312 µM (active) | 0.149 µM (active) | 0.271 µM (active) | 0.216 µM (active) | 0.19 µM (active) | 0.0348 µM (active) | 0.176 µM (active) | 0.074 µM (active) | 0.187 µM (active) |  | 0.234 µM (active) | 0.199 µM (active) | 0.326 µM (active) | 0.276 µM (active) | 0.0841 µM (active) | 0.175 µM (active) | 0.181 µM (active) | 0.202 µM (active) | 0.0194 µM (active)
4 | CCCCNC(=O)Cn1c2ccc(Br)cc2c2nc3ccccc3nc21 | > 100 µM (inactive) | > 100 µM (inactive) |  | > 100 µM (inactive) | > 100 µM (inactive) | > 100 µM (inactive) |  | > 100 µM (inactive) |  | > 100 µM (inactive) |  | 42.2 µM (inactive) | 33.3 µM (inactive) | > 100 µM (inactive) | > 100 µM (inactive) | > 100 µM (inactive) | > 100 µM (inactive) | > 100 µM (inactive) | > 100 µM (inactive) | 0.589 µM (active)
5 | COC(CNC(=O)C(C)NC(=O)C(C)NC(=O)c1ccccc1)OC (centres undefined) |  | > 100 µM (inactive) | > 100 µM (inactive) | > 100 µM (inactive) | > 100 µM (inactive) |  | > 100 µM (inactive) | > 100 µM (inactive) | > 100 µM (inactive) | > 100 µM (inactive) |  | > 100 µM (inactive) | > 100 µM (inactive) | > 100 µM (inactive) | > 100 µM (inactive) | > 100 µM (inactive) | > 100 µM (inactive) | > 100 µM (inactive) |  | > 100 µM (inactive)
6 | CC(C)CC1C(=O)OC(C)(C)OC1=O | > 100 µM (inactive) | > 100 µM (inactive) |  | > 100 µM (inactive) | > 100 µM (inactive) | > 100 µM (inactive) | > 100 µM (inactive) | > 100 µM (inactive) | > 100 µM (inactive) | > 100 µM (inactive) | > 100 µM (inactive) | > 100 µM (inactive) | > 100 µM (inactive) | > 100 µM (inactive) | > 100 µM (inactive) | > 100 µM (inactive) | > 100 µM (inactive) | > 100 µM (inactive) | > 100 µM (inactive) | 
7 | CCCCc1ccc(Nc2cc(=O)n(C)c(=O)[nH]2)cc1 | 52.1 µM (inactive) | > 100 µM (inactive) | > 100 µM (inactive) | > 100 µM (inactive) | > 100 µM (inactive) | > 100 µM (inactive) | > 100 µM (inactive) | 54.3 µM (inactive) | 32.2 µM (inactive) | > 100 µM (inactive) | > 100 µM (inactive) | 57.4 µM (inactive) | 57 µM (inactive) | > 100 µM (inactive) | 89.7 µM (inactive) | > 100 µM (inactive) | > 100 µM (inactive) | > 100 µM (inactive) | 39.8 µM (inactive) | 
8 | CCC1(C)C=Cc2c(cc(O)c3c(=O)c4ccccc4n(C)c23)O1 (centres undefined) | > 10 µM (inactive) | > 10 µM (inactive) | > 10 µM (inactive) | > 10 µM (inactive) | > 10 µM (inactive) | > 10 µM (inactive) | > 10 µM (inactive) | > 10 µM (inactive) | > 10 µM (inactive) | > 10 µM (inactive) | > 10 µM (inactive) | > 10 µM (inactive) | > 10 µM (inactive) | > 10 µM (inactive) | > 10 µM (inactive) | > 10 µM (inactive) | > 10 µM (inactive) | > 10 µM (inactive) | > 10 µM (inactive) | 
